Active and inactive are the calls of the source. The rule behind the calls is not given here.
Legend:
[1] = Antioxidant activity assessed as DPPH radical scavenging activity at 100 uM after 30 mins (reference value: 1.9 +/- 1.2%); assay type: functional
Rattus norvegicus = species on record: Rattus norvegicus; assay: Inhibition of rat bone marrow myeloperoxidase using H2O2 as substrate at 10 uM after 20 mins by TMB based method (reference value: - 1.4 +/- 12.7%)
[2] = biological target: Acetylcholinesterase (Electrophorus electricus) (UniProt O42275); assay: Inhibition of Electrophorus electricus AChE at 100 uM using acetylthiocholine iodide as substrate preincubated for 30 mins followed by substrate addition and measured after 10 mins by Ellman's method
[3] = Inhibition of rat bone marrow myeloperoxidase using H2O2 as substrate after 20 mins by TMB based method
[4] = Antioxidant activity assessed as DPPH radical scavenging activity after 30 mins; assay type: functional
[5] = Metal chelating activity assessed as compound-Mg2+ complex formation at 20 uM in presence of MgCl2 after 2 hrs by UV-visible spectrophotometric analysis
[6] = Metal chelating activity assessed as compound-Fe2+ complex stoichiometry ratio of 2:1 at 20 uM in presence of FeCl2 after 2 hrs by Job's plot analysis
[7] = Metal chelating activity assessed as compound-Fe2+ complex formation at 20 uM in presence of FeCl2 after 2 hrs by UV-visible spectrophotometric analysis
[8] = Metal chelating activity assessed as compound-Zn2+ complex formation at 20 uM in presence of ZnCl2 after 2 hrs by UV-visible spectrophotometric analysis
[9] = biological target: Acetylcholinesterase (Electrophorus electricus) (UniProt O42275); assay: Non-competitive mixed inhibition of Electrophorus electricus AChE using acetylthiocholine iodide as substrate preincubated for 30 mins followed by substrate addition and measured after 10 mins by Lineweaver-Burk plot analysis
[10] = Metal chelating activity assessed as compound-Zn2+ complex stoichiometry ratio of 2:1 at 20 uM in presence of ZnCl2 after 2 hrs by Job's plot analysis
[11] = Metal chelating activity assessed as compound-Cu2+ complex formation at 20 uM in presence of Cucl2 after 2 hrs by UV-visible spectrophotometric analysis
[12] = Metal chelating activity assessed as compound-Ca2+ complex formation at 20 uM in presence of CaCl2 after 2 hrs by UV-visible spectrophotometric analysis

Sequence of Acetylcholinesterase (Electrophorus electricus) (O42275 24-633 limits assumed): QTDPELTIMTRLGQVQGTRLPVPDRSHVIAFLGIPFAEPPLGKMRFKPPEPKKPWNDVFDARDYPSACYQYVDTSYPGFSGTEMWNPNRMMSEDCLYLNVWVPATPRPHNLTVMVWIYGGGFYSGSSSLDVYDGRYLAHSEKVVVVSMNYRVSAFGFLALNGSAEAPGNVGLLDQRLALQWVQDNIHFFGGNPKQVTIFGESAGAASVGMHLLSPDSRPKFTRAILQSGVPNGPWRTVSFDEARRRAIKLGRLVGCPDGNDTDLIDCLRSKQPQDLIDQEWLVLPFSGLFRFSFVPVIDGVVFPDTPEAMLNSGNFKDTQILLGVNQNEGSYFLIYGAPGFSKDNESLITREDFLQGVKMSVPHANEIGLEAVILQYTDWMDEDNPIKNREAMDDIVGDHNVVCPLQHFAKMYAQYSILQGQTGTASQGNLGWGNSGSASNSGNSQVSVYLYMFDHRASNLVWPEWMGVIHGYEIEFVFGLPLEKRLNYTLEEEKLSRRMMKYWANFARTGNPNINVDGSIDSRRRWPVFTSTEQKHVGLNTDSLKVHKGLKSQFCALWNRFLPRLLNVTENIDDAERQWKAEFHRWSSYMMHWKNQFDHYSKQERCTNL

Row | Compound | Activity [1] [%] | inhibition (Rattus norvegicus) [%] | inhibition [2] [%] | IC50 [3] [µM] | other results
1 | O=C(N/N=C/c1ccc([N+](=O)[O-])cc1)c1ccncc1 | 2.5 | 32 | 12.7 |  | 
2 | CCN(C)C(=O)Oc1cccc([C@H](C)N(C)C)c1 | 0.2 | 17.1 | 59.6 |  | 
3 | O=C(N/N=C/c1cccc([N+](=O)[O-])c1)c1ccncc1 | 2 | -10 | 36.2 |  | 
4 | O=C(N/N=C/c1ccccc1)c1ccncc1 | 3.3 | 5.1 | 16.5 |  | 
5 | O=C(N/N=C/c1c[nH]c2ccccc12)c1ccncc1 | 28.8 | 82.2 | 5.5 | 1.5 | 
6 | COc1cc(/C=N/NC(=O)c2ccncc2)ccc1O [FTIVAZIDE] | 76.7 | 17.3 | 23.1 |  | IC50 [4]: 33.6 µM
7 | O=C(N/N=C/c1ccc(Cl)c(Cl)c1)c1ccncc1 | 3.9 | -2.4 | 14 |  | 
8 | O=C(N/N=C/c1cc(Br)ccc1O)c1ccncc1 | 3.9 | 90 | 6.8 | 4.3 | 
9 | O=C(N/N=C/c1ccc(O)cc1)c1ccncc1 | 28.7 |  | 10 |  | 
10 | O=C(N/N=C/c1coc2ccccc2c1=O)c1ccncc1 | 82.2 | 80.1 | 54.2 | 5.3 | Activity [5]: inactive; Activity [6]: Active; Activity [7]: Active; IC50 [4]: 42.4 µM; Activity [8]: Active; inhibition [9]: Active; Activity [10]: Active; Activity [11]: Active; Activity [12]: inactive
11 | NNC(=O)c1ccncc1 [ISONIAZID] | 91.3 | 99 | 5.8 | 3.9 | IC50 [4]: 22.9 µM
12 | O=C(N/N=C/c1ccccc1O)c1ccncc1 | 5.3 | 45.3 | 3 |  | 
13 | O=C(N/N=C/c1cc(O)ccc1O)c1ccncc1 | 92.4 | 100 | 0.3 | 4.8 | IC50 [4]: 18.3 µM
14 | COc1ccc(/C=N/NC(=O)c2ccncc2)cc1 | 2.4 | 6 | 8 |  | 
15 | O=c1c(O)c(-c2ccc(O)c(O)c2)oc2cc(O)cc(O)c12 [QUERCETIN] | 96.3 | 96.3 |  |  | IC50 [4]: 15.3 µM
16 | O=C(N/N=C/c1ccc(F)cc1)c1ccncc1 | 8.1 | 4.6 | 16.3 |  | 
17 | CN(C)c1ccc(/C=N/NC(=O)c2ccncc2)cc1 [N'-(4-DIMETHYLAMINOBENZYLIDENE)ISONICOTINOHYDRAZIDE] | 6.3 | 96.1 | 6.9 | 1.4 | 
18 | O=C(N/N=C/c1ccccn1)c1ccncc1 | -0.6 | 0.3 | 24.5 |  | 

Source: ChEMBL document CHEMBL4627368, “Acylhydrazones as isoniazid derivatives with multi-target profiles for the treatment of Alzheimer's disease: Radical scavenging, myeloperoxidase/acetylcholinesterase inhibition and biometal chelation” (Bioorg Med Chem, 2020)
